Values quoted from earlier work, collected in patent publication US20230113077A1, “CONTROLLED RELEASE SELEXIPAG COMPOSITION” (ACTELION PHARMACEUTICALS LTD, priority 2020, published 2023).

Conditions: phase III clinical trial; patients with pulmonary arterial hypertension; selexipag versus placebo

CC(C)N(CCCCOCC(=O)NS(C)(=O)=O)c1cnc(-c2ccccc2)c(-c2ccccc2)n1 [selexipag, 2-{4-[N-(5,6-diphenylpyrazin-2-yl)-N-isopropylamino]butyloxy}-N-(methylsulfonyl)acetamide]
risk of the primary composite end point of death or a complication related to pulmonary arterial hypertension: significantly lower
